From BindingDB's records for doi:10.1016/j.bmc.2019.05.001 (2019)

Assay: Inhibition of mouse GAT2 expressed in HEK293 cells assessed as reduction in [3H]GABA uptake preincubated for 25 mins followed by [3H]GABA addition and measured after 10 mins by liquid scintillation counting method

## O=C(O)C1CCN(CCON=Cc2ccccc2-c2ccc(Cl)cc2Cl)C1 (stereo unspecified)
  IC50: 53.7 µM
